Assays:
EP2 [1] = target: T1, EP2 (Homo sapiens, UniProt P43116); assay: EP2 flipr assay; format: cell-based
Text: (§1) U.S. patent application Ser. No. 11/553,143, filed on Oct. 26, 2006, incorporated by reference herein, describes the methods used to obtain the in vitro data in the table below.

EP2 [2] = target: T1, EP2; assay: EP2 cAMP assay; format: cell-based
Text: as §1

EP2 [3] = target: T1, EP2; assay: EP2 binding (Ki)
Text: as §1

hEP1 = target: T2, hEP1 (Homo sapiens, UniProt P34995); assay: Other receptors functional EC50, hEP1; format: cell-based
T2 sequence (P34995 1-402): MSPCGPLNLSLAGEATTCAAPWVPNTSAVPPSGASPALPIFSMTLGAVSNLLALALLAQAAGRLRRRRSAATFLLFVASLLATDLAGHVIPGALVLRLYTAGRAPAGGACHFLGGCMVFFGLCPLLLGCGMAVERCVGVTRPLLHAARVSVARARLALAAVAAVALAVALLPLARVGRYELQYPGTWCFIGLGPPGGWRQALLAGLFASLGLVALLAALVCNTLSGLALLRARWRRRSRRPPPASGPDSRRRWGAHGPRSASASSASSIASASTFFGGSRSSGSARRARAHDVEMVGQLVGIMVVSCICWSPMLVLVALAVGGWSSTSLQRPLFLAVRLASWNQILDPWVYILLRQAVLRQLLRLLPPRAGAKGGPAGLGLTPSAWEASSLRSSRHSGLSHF
Text: as §1

hEP3A = target: T3, hEP3A (Homo sapiens, UniProt P43115); assay: Other receptors functional EC50, hEP3A; format: cell-based
T3 sequence (P43115 1-390): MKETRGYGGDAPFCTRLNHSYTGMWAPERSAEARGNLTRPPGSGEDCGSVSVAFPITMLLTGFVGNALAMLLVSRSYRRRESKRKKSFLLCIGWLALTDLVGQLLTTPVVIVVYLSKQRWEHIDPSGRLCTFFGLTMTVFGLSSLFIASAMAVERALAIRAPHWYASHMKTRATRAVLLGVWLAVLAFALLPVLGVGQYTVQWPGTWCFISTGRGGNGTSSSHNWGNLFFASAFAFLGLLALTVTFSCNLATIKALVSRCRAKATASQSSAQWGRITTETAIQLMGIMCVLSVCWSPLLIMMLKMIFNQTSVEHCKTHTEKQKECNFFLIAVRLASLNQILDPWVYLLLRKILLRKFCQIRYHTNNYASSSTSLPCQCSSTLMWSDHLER
Text: as §1

hDP = target: T4, hDP (Homo sapiens, UniProt Q13258); assay: Other receptors functional EC50, hDP; format: cell-based
T4 sequence (Q13258 1-359): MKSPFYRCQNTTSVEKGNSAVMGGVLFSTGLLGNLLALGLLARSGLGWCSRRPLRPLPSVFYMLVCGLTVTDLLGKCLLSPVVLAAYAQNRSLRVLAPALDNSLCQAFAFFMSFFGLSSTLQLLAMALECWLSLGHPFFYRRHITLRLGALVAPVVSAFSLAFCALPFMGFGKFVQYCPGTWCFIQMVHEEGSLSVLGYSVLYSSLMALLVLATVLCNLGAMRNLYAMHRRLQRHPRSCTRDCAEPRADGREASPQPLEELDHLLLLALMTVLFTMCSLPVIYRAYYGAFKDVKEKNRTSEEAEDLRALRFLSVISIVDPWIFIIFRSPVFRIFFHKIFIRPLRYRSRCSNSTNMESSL
Text: as §1

EP4 [4] = target: T5, EP4 (Homo sapiens, UniProt P35408); assay: EP4 binding (KI)
Text: as §1

EP4 [5] = target: T5, EP4; assay: EP4 flipr assay; format: cell-based
Text: as §1

normotensive dogs = assay: Intraocular pressure and ocular surface hyperemia in normotensive dogs; format: in vivo, dog; settings: once daily for 5 days
Method: U.S. Pat. No. 7,091,231 describes the methods used to carry out the tests reported below.
[…] The maximum intraocular pressure (IOP) decrease from baseline was 6.3 mmHg (39%) at 4 h; the maximum ocular surface hyperemia (OSH) score was 1.6 at 28 hours. This compound was also tested in laser-induced hypertensive monkeys, using one single day dose. At 0.01%, the maximum IOP decrease from baseline was 23 mmHg (61%) at 24 hours.

hTP = target: T6, hTP (Homo sapiens, UniProt P21731); assay: Other receptors functional EC50, hTP; format: cell-based
T6 sequence (P21731 1-343): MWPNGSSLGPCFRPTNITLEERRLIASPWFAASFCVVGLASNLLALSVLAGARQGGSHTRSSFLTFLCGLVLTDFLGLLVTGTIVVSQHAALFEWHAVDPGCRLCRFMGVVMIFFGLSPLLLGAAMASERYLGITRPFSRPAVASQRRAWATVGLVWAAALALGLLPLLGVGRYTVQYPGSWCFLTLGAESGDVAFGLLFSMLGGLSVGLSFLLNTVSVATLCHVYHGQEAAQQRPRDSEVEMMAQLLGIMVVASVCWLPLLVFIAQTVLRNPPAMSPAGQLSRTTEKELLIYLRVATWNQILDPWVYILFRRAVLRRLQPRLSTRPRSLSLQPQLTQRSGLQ
Text: as §1

hIP = hIP (Homo sapiens, UniProt P43119); assay: Other receptors functional EC50, hIP; format: cell-based
Text: as §1

T1 sequence (P43116 whole entry): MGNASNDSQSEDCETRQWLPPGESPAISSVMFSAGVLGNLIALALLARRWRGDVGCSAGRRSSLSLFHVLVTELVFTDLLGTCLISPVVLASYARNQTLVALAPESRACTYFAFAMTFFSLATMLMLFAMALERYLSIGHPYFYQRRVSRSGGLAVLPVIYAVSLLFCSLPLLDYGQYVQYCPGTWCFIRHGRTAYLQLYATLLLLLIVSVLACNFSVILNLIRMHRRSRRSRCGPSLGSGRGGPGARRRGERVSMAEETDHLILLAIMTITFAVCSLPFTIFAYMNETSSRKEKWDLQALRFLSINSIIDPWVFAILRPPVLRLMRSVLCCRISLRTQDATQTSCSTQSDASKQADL
T5 sequence (P35408 whole entry): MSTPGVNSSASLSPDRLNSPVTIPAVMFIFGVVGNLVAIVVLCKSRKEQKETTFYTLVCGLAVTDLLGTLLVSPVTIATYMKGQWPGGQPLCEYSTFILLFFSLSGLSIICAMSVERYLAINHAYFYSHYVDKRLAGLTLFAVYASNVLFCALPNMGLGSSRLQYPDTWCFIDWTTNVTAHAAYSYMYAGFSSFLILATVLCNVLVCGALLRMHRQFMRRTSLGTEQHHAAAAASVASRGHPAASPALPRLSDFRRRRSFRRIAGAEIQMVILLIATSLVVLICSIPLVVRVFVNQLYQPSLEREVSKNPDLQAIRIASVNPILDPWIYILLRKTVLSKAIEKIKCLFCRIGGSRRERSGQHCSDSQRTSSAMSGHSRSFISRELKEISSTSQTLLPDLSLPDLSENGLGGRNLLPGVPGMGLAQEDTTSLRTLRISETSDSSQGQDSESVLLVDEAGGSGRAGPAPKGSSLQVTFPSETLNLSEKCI
hIP, sequence (P43119 whole entry): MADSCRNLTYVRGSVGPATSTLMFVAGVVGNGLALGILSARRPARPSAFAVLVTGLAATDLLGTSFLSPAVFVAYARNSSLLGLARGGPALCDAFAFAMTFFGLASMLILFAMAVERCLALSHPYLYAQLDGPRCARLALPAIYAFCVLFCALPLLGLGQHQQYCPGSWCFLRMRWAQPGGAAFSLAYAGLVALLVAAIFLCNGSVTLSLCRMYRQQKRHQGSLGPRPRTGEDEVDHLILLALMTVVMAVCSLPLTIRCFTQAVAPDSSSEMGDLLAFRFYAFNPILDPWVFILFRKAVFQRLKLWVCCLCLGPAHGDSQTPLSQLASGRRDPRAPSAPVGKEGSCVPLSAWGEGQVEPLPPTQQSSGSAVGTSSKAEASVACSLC

| SMILES | EC50 (EP2 [1]) | EC50 (EP2 [2]) | Ki (EP2 [3]) | EC50 (hEP1) | EC50 (hEP3A) | EC50 (hDP) | Ki (EP4 [4]) | EC50 (EP4 [5]) | maximum ocular surface hyperemia (OSH) score (normotensive dogs; 0.001%, maximum at 50 hours) | maximum ocular surface hyperemia (OSH) score (normotensive dogs; 0.01%, maximum at 26 hours) | maximum ocular surface hyperemia (OSH) score (normotensive dogs; 0.01%, maximum at 28 hours) | EC50 (hTP) | EC50 (hIP) |
| --- | --- | --- | --- | --- | --- | --- | --- | --- | --- | --- | --- | --- | --- |
| CCCCCCC(O)c1ccc(N2C(=O)CC[C@@H]2CCSc2nc(C(=O)O)cs2)cc1 (single isomer, unassigned) [compound 36] | 57 nM | 1.2 nM | 13 nM |  | 11 nM | 11900 nM | > 10000 nM |  |  |  |  |  |  |
| CCCCCC(O)c1ccc(N2C(=O)CC[C@@H]2CCSc2nc(C(=O)OC(C)C)cs2)cc1 (single isomer, unassigned) [compound 67] |  |  |  |  |  |  |  |  | 1.9 | 2.0 |  |  |  |
| CCCCCC(O)c1ccc(N2C(=O)CC[C@@H]2CCSc2nc(C(=O)OC(C)C)cs2)cc1 (single isomer, unassigned) [compound 68] |  |  |  |  |  |  |  |  |  |  | 2.0 |  |  |
| CCCCCC(O)c1ccc(N2C(=O)CC[C@@H]2CCSc2ncc(C(=O)O)s2)cc1 (stereo partly drawn) [compound 22, (R)-2-(2-(1-(4-(1-hydroxyhexyl)phenyl)-5-oxopyrrolidin-2-yl)ethylthio)thiazole-5-carboxylic acid] | 1800 nM | 4 nM | 389 nM |  | 11400 nM | > 10000 nM | > 10000 nM |  |  |  |  |  | > 10000 nM |
| CCCCCC(O)c1ccc(N2C(=O)CC[C@@H]2COCc2cc(C(=O)O)cs2)cc1 (stereo partly drawn) [compound 42, (R)-5-(((1-(4-(1-hydroxyhexyl)phenyl)-5-oxopyrrolidin-2-yl)methoxy)methyl)thiophene-3-carboxylic acid] | 2240 nM | 5.5 nM | 448 nM |  | 1520 nM |  | > 10000 nM |  |  |  |  |  |  |
| CCCCCC(F)c1ccc(N2C(=O)CC[C@@H]2COCc2cc(C(=O)O)cs2)cc1 (stereo partly drawn) [compound 43, (R)-5-(((1-(4-(1-fluorohexyl)phenyl)-5-oxopyrrolidin-2-yl)methoxy)methyl)thiophene-3-carboxylic acid] | 3850 nM | 7 nM | 256 nM |  | 1960 nM |  | > 10000 nM |  |  |  |  |  |  |
| CCCCCC(O)c1ccc(N2C(=O)CC[C@@H]2COCc2csc(C(=O)O)c2)cc1 (stereo partly drawn) [compound 47, (R)-4-(((1-(4-(1-hydroxyhexyl)phenyl)-5-oxopyrrolidin-2-yl)methoxy)methyl)thiophene-2-carboxylic acid] | 2530 nM | 18 nM | 784 nM |  | 1340 nM |  | > 10000 nM |  |  |  |  |  |  |
| CCCCCC(F)c1ccc(N2C(=O)CC[C@@H]2COCc2csc(C(=O)O)c2)cc1 (stereo partly drawn) [compound 48, (R)-4-(((1-(4-(1-fluorohexyl)phenyl)-5-oxopyrrolidin-2-yl)methoxy)methyl)thiophene-2-carboxylic acid] | 5010 nM | 40 nM | 1930 nM |  | 3410 nM |  | > 10000 nM |  |  |  |  |  |  |
| CCCCCC(F)c1ccc(N2C(=O)CC[C@@H]2CSc2nc(C(=O)O)cs2)cc1 (stereo partly drawn) [compound 54] | 212 nM | 117 nM | 345 nM |  | 503 nM | 16400 nM | > 10000 nM |  |  |  |  | 14500 nM |  |
| CCCCCC(O)c1ccc(N2C(=O)CC[C@@H]2CSc2nc(C(=O)O)cs2)cc1 (stereo partly drawn) [compound 55] | 284 nM | 120 nM | 355 nM |  | 360 nM | 16000 nM | > 10000 nM |  |  |  |  | 3890 nM |  |
| CCCCCC(O)c1ccc(N2C(=O)CC[C@@H]2CCSc2nc(C(=O)OC(C)C)cs2)cc1 (stereo partly drawn) [compound 66, Isopropyl 2-(2-((2R)-1-(4-(1-hydroxyhexyl)phenyl)-5-oxopyrrolidin-2-yl)ethylthio)thiazole-4-carboxylate] |  |  |  |  |  |  |  |  |  |  | 1.6 |  |  |

Continued, values first:

| EC50 (EP2 [1]) | EC50 (EP2 [2]) | Ki (EP2 [3]) | EC50 (hEP1) | EC50 (hEP3A) | EC50 (hDP) | Ki (EP4 [4]) | EC50 (EP4 [5]) | maximum ocular surface hyperemia (OSH) score (normotensive dogs; 0.001%, maximum at 50 hours) | maximum ocular surface hyperemia (OSH) score (normotensive dogs; 0.01%, maximum at 26 hours) | maximum ocular surface hyperemia (OSH) score (normotensive dogs; 0.01%, maximum at 28 hours) | EC50 (hTP) | EC50 (hIP) | SMILES |
| --- | --- | --- | --- | --- | --- | --- | --- | --- | --- | --- | --- | --- | --- |
| 18 nM | 0.15 nM | 15 nM | > 10000 nM | 35 nM | > 10000 nM |  |  |  |  |  |  |  | CCCCCC(O)c1ccc(N2C(=O)CC[C@@H]2CCSc2nc(C(=O)O)cs2)cc1 (single isomer, unassigned) [compound 17] |
| 7 nM | 0.09 nM | 15 nM |  | 46 nM | 7170 nM |  |  |  |  |  |  |  | CCCCCC(O)c1ccc(N2C(=O)CC[C@@H]2CCSc2nc(C(=O)O)cs2)cc1 (single isomer, unassigned) [compound 18] |
| 11 nM | 0.4 nM | 9 nM |  | 51 nM | 5320 nM | 9150 nM | 14600 nM |  |  |  |  |  | CCCCCCC(O)c1ccc(N2C(=O)CC[C@@H]2CCSc2nc(C(=O)O)cs2)cc1 (single isomer, unassigned) [compound 37] |
| 36 nM | 0.19 nM | 11 nM | > 10000 nM | 44 nM | > 10000 nM | > 10000 nM |  |  |  |  | > 10000 nM | > 10000 nM | CCCCCC(O)c1ccc(N2C(=O)CC[C@@H]2CCSc2nc(C(=O)O)cs2)cc1 (stereo partly drawn) [compound 14, (R)-2-(2-(1-(4-(1-hydroxyhexyl)phenyl)-5-oxopyrrolidin-2-yl)ethylthio)thiazole-4-carboxylic acid] |
| 8 nM | 0.23 nM | 9 nM | > 10000 nM | 90 nM | > 10000 nM | > 10000 nM |  |  |  |  |  |  | CCCCCC(F)c1ccc(N2C(=O)CC[C@@H]2CCSc2nc(C(=O)O)cs2)cc1 (stereo partly drawn) [compound 19, (R)-2-(2-(1-(4-(1-fluorohexyl)phenyl)-5-oxopyrrolidin-2-yl)ethylthio)thiazole-4-carboxylic acid] |
| 3 nM | 0.4 nM | 12 nM | > 10000 nM | 25 nM | 1560 nM | 6360 nM | > 10000 nM |  |  |  |  |  | CCCCCCC(O)c1ccc(N2C(=O)CC[C@@H]2CCSc2nc(C(=O)O)cs2)cc1 (stereo partly drawn) [compound 33, (R)-2-(2-(1-(4-(1-hydroxyheptyl)phenyl)-5-oxopyrrolidin-2-yl)ethylthio)thiazole-4-carboxylic acid] |
| 45 nM | 0.7 nM | 18 nM |  | 43 nM | 594 nM | 3030 nM | > 10000 nM |  |  |  |  |  | CCCCCCC(=O)c1ccc(N2C(=O)CC[C@@H]2CCSc2nc(C(=O)O)cs2)cc1 [compound 38, (R)-2-(2-(1-(4-heptanoylphenyl)-5-oxopyrrolidin-2-yl)ethylthio)thiazole-4-carboxylic acid] |
| 37 nM | 0.8 nM | 115 nM |  | 42 nM | > 10000 nM |  |  |  |  |  |  |  | CCCCCC(O)c1ccc(N2C(=O)CC[C@@H]2CCCc2nc(C(=O)O)cs2)cc1 (stereo partly drawn) [compound 63, (S)-2-(3-(1-(4-(1-hydroxyhexyl)phenyl)-5-oxopyrrolidin-2-yl)propyl)thiazole-4-carboxylic acid] |

From patent US7589213B2 (priority 2007, dated 2009)
